Results as given in patent US11304945B2, “Pharmaceutical composition and method for preparing same” (Jiangsu Hengrui Medicine Co., Ltd., priority 2017, dated 2022).

Assay: Pharmacokinetics (PK) study in animals
Assay type: in vivo
Conditions: both sexes, dog; beagle dogs, oral, 30 mg/kg, plasma
Description: 12 beagle dogs were grouped into two groups (6 beagle dogs per group, half male and half female). The beagle dogs were fasted for more than 12 h before the experiment, and food was provided 4 h after the drug administration on the day of the experiment. Water was not deprived during the experiment. The crystal form of compound A and the solid dispersion of compound A, respectively (the ratio of compound A to hydroxypropyl methylcellulose acetate succinate was 1:1, according to the formulation of Experimental Example 3), were administered orally to the two groups of animals with an administration dose of 30 mg/kg. 0.6 mL of blood was taken from climb veins before administration and 0.25, 0.5, 1.0, 2.0, 4.0, 6.0, 8.0, 12, 24 and 72 h after administration. The blood was stored in an ethylenediaminetetraacetic acid (EDTA) anticoagulant tube, and centrifuged for 10 minutes at 3500 rpm (4° C.) to separate the blood plasma. The plasma was stored at −70° C.
The concentration of API in the blood plasma and the administrated solution was determined by liquid chromatography-tandem mass spectrometry (LC/MS/MS). The pharmacokinetic parameters of beagle dogs after drug administration were calculated with the resulting plasma concentration using the non-compartmental model of Phoenix WinNonlin 6.4 software.

- AUC(0-inf): 3870 ± 3170 ng·h/mL
- Cmax: 630 ± 530 ng/mL
- half-life: 181 ± 39 min
SMILES: CC#CC(=O)N1CC[C@@H](n2cc(-c3ccc(Oc4c(F)cccc4F)cc3)c3c(N)n[nH]c(=O)c32)C1 [Crystal form of compound A, (R)-4-amino-1-(1-(but-2-ynoyl)pyrrolidin-3-yl)-3-(4-(2,6-difluorophenoxy)phenyl)-1,6-dihydro-7H-pyrrolo[2,3-d]pyridazin-7-one]
